According to ChEMBL document CHEMBL6096684, “Targeting IspD for Anti-infective and Herbicide Development: Exploring Its Role, Mechanism, and Structural Insights” (J Med Chem, 2025):

Columns and labels:
[1] = Inhibition of Arabidopsis thaliana IspD
[2] = Inhibition of wild type Plasmodium falciparum IspD extracted from Escherichia coli BL21 (DE3)
[3] = Inhibition of Plasmodium falciparum IspD
[4] = Inhibition of Plasmodium falciparum 3D7 IspD
[5] = Inhibition of Plasmodium vivax IspD

## N#Cc1cnn2c(O)c(Cc3ccccc3)c(Cl)nc12
[1]
  IC50: 35 µM

## COc1ccc2nc(NC(=O)c3cc(-c4ccccc4O)n[nH]3)sc2c1
[1]
  IC50: 1.8 µM

## COc1ccc2nc(NC(=O)COc3ccc(-c4ccccc4)cc3)sc2c1
[1]
  IC50: 6.3 µM

## O=C(O)[C@@H]1Cc2c([nH]c3ccccc23)[C@@H](c2ccc(Cl)cc2Cl)N1
[2]
  IC50: 0.25 µM

## O=C(O)[C@H]1Cc2c([nH]c3ccccc23)[C@H](c2ccc(Cl)cc2Cl)N1
[2]
  IC50: 0.047 µM

## O=C(O)[C@H]1Cc2c([nH]c3ccccc23)[C@@H](c2ccc(Cl)cc2Cl)N1
[2]
  IC50: 0.17 µM

## Cc1ccc(C)n1-c1ccc([N+](=O)[O-])cc1C(=O)O
[3]
  IC50: 271 µM

## O=C(O)c1cnn2c(O)c(Cc3ccccc3)c(Cl)nc12
[1]
  IC50: 274 µM

## O=c1c2ccccc2sn1-c1cccc(-c2ccc(Cl)cc2)c1
[4]
  IC50: 1.1 µM
[3]
  IC50: 0.073 µM
[5]
  IC50: 0.057 µM

## Cc1ccc(-n2sc3ccccc3c2=O)cc1S(=O)(=O)N1CCOCC1
[4]
  IC50: 4.3 µM
[3]
  IC50: 0.45 µM
[5]
  IC50: 0.045 µM

## Oc1c(Br)cc(Br)cc1-c1cc(C(F)(F)F)no1
[1]
  IC50: 9.3 µM

## Oc1ccc(Br)cc1-c1cc(C(F)(F)F)no1
[1]
  IC50: 418 µM

## Oc1c(Br)cc(Br)cc1-c1ccno1
[1]
  IC50: 121 µM

## CC(C)CCn1c(N)c(-c2nc3ccccc3[nH]2)c2nc3ccccc3nc21
[1]
  IC50: 1.6 µM

## Oc1ccc(Br)cc1-c1ccno1
[1]
  IC50: > 500 µM

## CCN(CC)CCCC(C)n1c(N)c(-c2nc3ccccc3[nH]2)c2nc(C#N)c(C#N)nc21 (configuration not stated)
[1]
  IC50: 50 µM

## Oc1c(Br)cc(Br)cc1-c1[nH]c(Br)c(Br)c1Br [PENTABROMOPSEUDILIN]
[5]
  IC50: 48 µM

## Oc1c(Cl)cc(Cl)cc1-c1[nH]c(Br)c(Br)c1Br [TRIBROMODICHLOROPSEUDILIN]
[5]
  IC50: 56 µM
